Experimental data from US20230203043A1, “NOVEL IMIDAZOPYRAZINE DERIVATIVES” (Hoffmann-La Roche Inc., priority 2020, published 2023).
Structures can show the parent of a compound that is named as a salt. Where two headings read alike, the source gives them in different places.

Legend:
[1] = system: Acinetobacter baumannii ATCC17968; test: Antimicrobial susceptibility testing: 90% growth inhibitory concentration (IC90) determination in Iso-Sensitest broth, OD600 growth; type: cell-based
How it was run: (§1)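 Each strain, at about 5×10^(5) CFU/ml, was incubated with twofold dilutions of compound at 35±2° C for 16 h, and IC90 was calculated from kinetic optical density measured at 600 nm during logarithmic growth.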

[2] = system: Acinetobacter baumannii ATCC17961; test: as above; type: cell-based; details: strain ATCC 17961, OD600 growth over 16 h, read-out: A. baumannii ATCC 17961 IC90
How it was run: as §1

[3] = Acinetobacter baumannii, ATCC17961, 16 h
[4] = strain ATCC 17978, Iso-Sensitest broth, OD600 growth over 16 h, read-out: A. baumannii ATCC 17978 IC90

Compound	IC90 [2, 3]	also measured
CCc1cc(Nc2nccn3c(-c4cn(C)nc4C(F)(F)F)cnc23)ccc1C(=O)NCCOCCN [Example 1, N-[2-(2-aminoethoxy)ethyl]-2-ethyl-4-[[3-[1-methyl-3-(trifluoromethyl)pyrazol-4-yl]imidazo[1,2-a]pyrazin-8-yl]amino]benzamide]	0.623 µM	IC90 ([1]; Acinetobacter baumannii, ATCC 17968 / ATCC 17978, strain ATCC 17978, Iso-Sensitest broth, OD600 growth over 16 h, read-out: A. baumannii ATCC 17978 IC90): 0.93 µM
CCc1cc(Nc2nccn3c(-c4cnn(CC(F)F)c4)cnc23)ccc1C(=O)NCCOCCN [Example 21, N-[2-(2-aminoethoxy)ethyl]-4-[[3-[1-(2,2-difluoroethyl)pyrazol-4-yl]imidazo[1,2-a]pyrazin-8-yl]amino]-2-ethylbenzamide formate]		IC90 ([1]; Acinetobacter baumannii, ATCC 17968 / ATCC 17978, 16 h, read-out: A. baumannii ATCC 17978 IC90 (uM)): 4.43 µM
CCc1cc(Nc2nccn3c(-c4c[nH]nc4C(F)(F)F)cnc23)ccc1C(=O)NCCOCCN [Example 23, N-[2-(2-aminoethoxy)ethyl]-2-ethyl-4-[[3-[3-(trifluoromeethyl) 1H-pyrazol-4-yl]imidazo[1,2-a]pyrazin-8-yl]amino] benzamide formate]		IC90 [1, 4]: 0.297 µM; IC90 [2]: 0.128 µM
O=C(CNCCNC(=O)c1ccc(Nc2nccn3c(-c4cn(CC(F)F)nc4C(F)(F)F)cnc23)cc1Cl)N[C@H]1CCNC1 [Example 822, (S)-2-chloro-4-(3-(1-2,2-difluoroethyl)-3-(trifluoromethyl)-1H-pyrazol-4-yl)imidazo[1,2-a]pyrazin-8-yl)amino)-N-(2-((2-oxo-2-(pyrrolidin-3-ylamino)ethyl) amino)ethyl) benzamide formate]	0.15 µM	
O=C(CNCCNC(=O)c1ccc(Nc2nccn3c(-c4cn(CC(F)F)nc4C(F)(F)F)cnc23)cc1Cl)N[C@@H]1CCNC1 [Example 823, (R)-2-chloro-4-(3-(1-(2,2-difluoroethyl)-3-(trifluoromethyl)-1H-pyrazol-4-yl)imidazo[1,2-a]pyrazin-8-yl)amino)-N-(2-((2-oxo-2-(pyrrolidin-3-ylamino)ethyl)amino)ethyl) benzamide formate]	0.18 µM	
NCCCNC(=O)CNCCNC(=O)c1ccc(Nc2nccn3c(-c4cn(CC(F)F)nc4C(F)(F)F)cnc23)cc1Cl [Example 824, N-(2-((2-((3-aminopropyl)amino)-2-oxoethyl)amino)ethyl)-2-chloro-4-(3-(1-2,2-difluoroethyl)-3-(trifluoromethyl)-1H-pyrazol-4-yl)imidazo[1,2-a]pyrazin-8-yl)amino) benzamide formate]	0.12 µM	
N#CCn1cc(-c2cnc3c(Nc4ccc(C(=O)N[C@H]5[C@@H]6CN(C(=O)N[C@@H]7CNC[C@H]7O)C[C@@H]65)c(Cl)c4)nccn23)c(C(F)(F)F)n1 [Example 825, (1s,5r)-6-[[2-chloro-4-[[3-[1-(cyanomethyl)-3-(trifluoromethyl)pyrazol-4-yl]imidazo[1,2-α]pyrazin-8-yl]amino]benzoyl]amino]-N-[(3R,4R)-4 hydroxypyrrolidin-3-yl]-3-azabicyclo[3.1.0]hexane-3-carboxamide formic acid salt]	0.11 µM	
NCCCCCCNC(=O)c1ccc(Nc2nccn3c(-c4cn(CC(F)F)nc4C(F)(F)F)cnc23)cc1Cl [Example 826, N-(6-aminohexyl)-2-chloro-4-((3-(1-(2,2-difluoroethyl)-3-(trifluoromethyl)-1H-pyrazol-4-yl)imidazo[1,2-α]pyrazin-8-yl)amino)benzamide hydrochloride]	0.11 µM	
CCc1cc(Nc2nccn3c(-c4c[nH]nc4C(F)(F)F)cnc23)ccc1C(=O)NCC1CCN(CC2CNC2)C1 (stereo not drawn) [Example 827, N-((1-(azetidin-3-ylmethyl)pyrrolidin-3-yl)methyl)-2-ethyl-4-((3-(3-(trifluoromethyl)-1H-pyrazol-4-yl)imidazo[1,2-α]pyrazin-8-yl)amino)benzamide bis(2,2,2-trifluoroacetate)]	0.57 µM	
CCc1cc(Nc2nccn3c(-c4cn(CC#N)nc4C(F)(F)F)cnc23)ccc1C(=O)NCC1CCN(CC2CNC2)CC1 [Example 828, N-((1-(azetidin-3-ylmethyl)piperidin-4-yl)methyl)-4-((3-(1-(cyanomethyl)-3-(trifluoromethyl)-1H-pyrazol-4-yl)imidazo[1,2-α]pyrazin-8-yl)amino)-2-ethylbenzamide 2,2,2-trifluoroacetate]	0.35 µM	
CCc1cc(Nc2nccn3c(-c4cn(CC(F)F)nc4C(F)(F)F)cnc23)ccc1C(=O)NCCCCCN(CC(=O)O)CC1CNC1 [Example 829, 2-[azetidin-3-ylmethyl-[S-[[4-[[3-[1-(2,2-difluoroethyl)-3-(trifluoromethyl)pyrazol-4-yl]imidazo[1,2-α]pyrazin-8-yl]amino]-2-ethyl-benzoyl]amino]pentyl]amino]acetic acid; formic acid]	0.72 µM	
CCc1cc(Nc2nccn3c(-c4cn(CC#N)nc4C#N)cnc23)ccc1C(=O)NCCOCCN [Example 830, N-(2-(2-aminoethoxy)ethyl)-4-((3-(3-cyano-1-(cyanomethyl)-1H-pyrazol-4-yl)imidazo[1,2-α]pyrazin-8-yl)amino)-2-ethyl-benzamide]	0.58 µM	
CCc1cc(Nc2nccn3c(-c4cn(CC#N)nc4SC)cnc23)ccc1C(=O)NCCOCCN [Example 831, N-(2-(2-aminoethoxy)ethyl)-4-((3-(1-(cyanomethyl)-3-(methylthio)-1H-pyrazol-4-yl)imidazo[1,2-α]pyrazin-8-yl)amino)-2-ethylbenzamide]	0.32 µM	
CCc1cc(Nc2nccn3c(-c4cn(CC(F)F)nc4C#N)cnc23)ccc1C(=O)NCCOCCN [Example 832, N-(2-(2-aminoethoxy)ethyl)-4-((3-(3-cyano-1-(2,2-difluoroethyl)-1H-pyrazol-4-yl)imidazo[1,2-α]pyrazin-8-yl)amino)-2-ethylbenzamide]	0.48 µM	
CCc1cc(Nc2nccn3c(-c4cn(CC#N)nc4Cl)cnc23)ccc1C(=O)NCCOCCN [Example 833, N-(2-(2-aminoethoxy)ethyl)-4-((3-(3-chloro-1-(cyanomethyl)-1H-pyrazol-4-yl)imidazo[1,2-α]pyrazin-8-yl)amino)-2-ethylbenzamide]	0.46 µM	
(3-aminoazetidin- 1-yl)-[2-chloro-4- [[3-[1-(2,2- difluoroethyl)-3- pyrazol-4- yl]imidazo[1,2- a]pyrazin-8- yl]amino]phenyl] methanone [Example 101]		IC90 [2]: 0.138 µM
N-[2-(2- aminoethoxy)ethyl]- 2-ethyl-4-[[3- [1- (methoxymethyl)- 3- (trifluoromeethyl) pyrazol-4- yl]imidazo[1,2- a]pyrazin-8- yl]amino] benzamide formate [Example 22]		IC90 [1, 4]: 1.84 µM; IC90 [2]: 1.84 µM
